Experimental findings from patent publication EP0080051A2, “Heterocyclic compounds and antibacterial and antifungal compositions containing the same as active ingredients” (MEIJI SEIKA KAISHA LTD., priority 1981, dated 1983) are described below.

For series [1] the following is noted: mouse, p.o.
The test system of series [2] is Staphylococcus aureus 209P JC-1. The series is described as follows: Antibacterial activity (in medicinal field), MIC. It counts as cell-based. The following applies: read-out: Minimal Inhibitory Conc. (MIC).
Series [3] has as its system Staphylococcus epidermidis ATCC 14990. Briefly: Antibacterial activity (in medicinal field), MIC. The following applies: ATCC14990, read-out: Minimal Inhibitory Conc. (MIC). In kind it is cell-based.
In series [4] the test system is Staphylococcus faecalis ATCC 8043. Briefly: Antibacterial activity (in medicinal field), MIC. In kind it is cell-based. To be noted: ATCC8043, read-out: Minimal Inhibitory Conc. (MIC).
The test system of series [5] is Bacillus anthracis No. 109. The series is described as follows: microbe, parasite or virus in culture. It counts as cell-based. To be noted: NO.109, read-out: Minimal Inhibitory Conc. (MIC).
Series [6] relates to Escherichia coli NIHJ JC-2. Briefly: Antibacterial activity (in medicinal field), MIC. It counts as cell-based. The following applies: NIHJJC2, read-out: Minimal Inhibitory Conc. (MIC).
For series [7], the system named is Citrobacter freundii GN-346. The series is described as follows: Antibacterial activity (in medicinal field), MIC. It counts as cell-based. The following applies: GN346, read-out: Minimal Inhibitory Conc. (MIC).
Another series relates to Salmonella typhi O-901-W. Briefly: Antibacterial activity (in medicinal field), MIC. It counts as cell-based. The following applies: Salmonella enterica, read-out: Minimal Inhibitory Conc. (MIC).
For series [8], the system named is Shigella sonnei EW 33 Type I. The series is described as follows: Antibacterial activity (in medicinal field), MIC. It counts as cell-based. To be noted: EW33TYPEI, read-out: Minimal Inhibitory Conc. (MIC).
Series [9] deals with Klebsiella pneumoniae PCI-602. The series is described as follows: Antibacterial activity (in medicinal field), MIC. In kind it is cell-based. To be noted: PCI602, read-out: Minimal Inhibitory Conc. (MIC).
A further series has as its system Proteus vulgaris OX-19. Briefly: Antibacterial activity (in medicinal field), MIC. It counts as cell-based. The following applies: OX19, read-out: Minimal Inhibitory Conc. (MIC).
Series [10] relates to Serratia marcescens MB-3848. The series is described as follows: Antibacterial activity (in medicinal field), MIC. In kind it is cell-based. To be noted: MB3848, read-out: Minimal Inhibitory Conc. (MIC).
Series [11] deals with Pseudomonas cepacia M-0527. Briefly: Antibacterial activity (in medicinal field), MIC. In kind it is cell-based. To be noted: Burkholderia cepacia, M0527, read-out: Minimal Inhibitory Conc. (MIC).
In series [12] the test system is Trichophyton mentagrophytes. The series is described as follows: Therapeutic experiment: treatment of trichophytosis in guinea pigs. It counts as in vivo. To be noted: 1 % preparation, 0.25 ml once per day over 8 consecutive days, visual observation of diseased skin.

The structures appear in SMILES notation. Values after ≈ are worked out from the molar mass of the structure shown. Where two headings read alike, the source gives them in different places.

`O=[N+]([O-])c1ccn(CC#CI)c1` [1-(1'-iodopro-pyn-3'-yl)-3-nitropyrrole, 1-(1'-iodopropyn-3'-yl)-3-nitropyrrole]: the “Acute Toxicity (survival)” value in series [1] (Dosage 200 mg/kg), in series [1] (Dosage 500 mg/kg) and in series [1] (Dosage 800 mg/kg) was “All animals survived” throughout.
As to `O=[N+]([O-])c1cn(CC#CI)c(Cl)c1Cl` [1-(1'-iodopropyn-3'-yl)-2,3-dichloro-4-nitropyrrole], the “Acute Toxicity (survival)” value in series [1] (Dosage 200 mg/kg), in series [1] (Dosage 500 mg/kg) and in series [1] (Dosage 800 mg/kg) was “All animals survived” throughout.
In the case of `O=[N+]([O-])c1cn(CC(I)=C(I)I)c(Cl)c1Cl` [1-(2',3',3'-triiodoallyl)-2,3-dichloro-4-nitropyrrole], the MIC in [2] is 31.2 mg/L (≈ 52.1 µM); in series [3], 31.2 mg/L (≈ 52.1 µM); in [4], 31.2 mg/L (≈ 52.1 µM); in series [5], 31.2 mg/L (≈ 52.1 µM); in series [6], 12.5 mg/L (≈ 20.9 µM); in series [7] it was 12.5 mg/L (≈ 20.9 µM). In addition, the MIC in the series with Salmonella typhi O-901-W worked out at 12.5 mg/L (≈ 20.9 µM); in [8] it was 6.25 mg/L (≈ 10.4 µM); in series [9] it was 25 mg/L (≈ 41.8 µM); in the series with Proteus vulgaris OX-19 it was 6.25 mg/L (≈ 10.4 µM); in series [10] it was 6.25 mg/L (≈ 10.4 µM); in [11], 6.25 mg/L (≈ 10.4 µM). Moreover, the “Therapeutic Effect: Desquamation” value in series [12] is listed as “effective”. The “Therapeutic Effect: Redness” value in series [12] was “prominently effective”. In addition, the “Therapeutic Effect: Thickening” value in [12] was “effective”. The “Acute Toxicity (survival)” value in series [1] (Dosage 100 mg/kg), in series [1] (Dosage 200 mg/kg) and in series [1] (Dosage 800 mg/kg) was “All animals survived” each time.
For `O=[N+]([O-])c1cc(Cl)n(CC(I)=C(I)I)c1` [1-(2',3',3'-triiodoallyl)-2-chloro-4-nitropyrrole], the MIC stood at 6.25 mg/L (≈ 11.1 µM) in [2]; 6.25 mg/L (≈ 11.1 µM) in [3]; 6.25 mg/L (≈ 11.1 µM) in series [4]; 6.25 mg/L (≈ 11.1 µM) in series [5]; 12.5 mg/L (≈ 22.2 µM) in series [6]; 12.5 mg/L (≈ 22.2 µM) in series [7]. Further, the MIC with Salmonella typhi O-901-W was determined as 12.5 mg/L (≈ 22.2 µM); in series [8] it was 12.5 mg/L (≈ 22.2 µM); in series [9], 25 mg/L (≈ 44.3 µM); with Proteus vulgaris OX-19, 12.5 mg/L (≈ 22.2 µM); in series [10], 12.5 mg/L (≈ 22.2 µM); in series [11], 12.5 mg/L (≈ 22.2 µM).
For the compound `O=[N+]([O-])c1nccn1CC(I)=C(I)I` [1-(2',3',3'-triiodoallyl)-2-nitroimidazole], the MIC in series [2] stood at 12.5 mg/L (≈ 23.5 µM); in series [3], 12.5 mg/L (≈ 23.5 µM); in series [4], 25 mg/L (≈ 47.1 µM); in [5] it was 6.25 mg/L (≈ 11.8 µM); in [6], 25 mg/L (≈ 47.1 µM); in series [7], 3.12 mg/L (≈ 5.88 µM). The MIC in the series with Salmonella typhi O-901-W amounted to 12.5 mg/L (≈ 23.5 µM); in series [8], 3.12 mg/L (≈ 5.88 µM); in [9] it was 6.25 mg/L (≈ 11.8 µM); in the series with Proteus vulgaris OX-19, 6.25 mg/L (≈ 11.8 µM); in [10], 25 mg/L (≈ 47.1 µM); in [11] it was 3.12 mg/L (≈ 5.88 µM).
Consider `O=[N+]([O-])c1ccn(CC(I)=C(I)I)c1` [1-(2',3',3'-triiodoallyl)-3-nitropyrrole], for which, in series [12], the “Therapeutic Effect: Desquamation” value is on record as “effective”, the “Therapeutic Effect: Redness” value is listed as “prominently effective” and the “Therapeutic Effect: Thickening” value is listed as “effective”. The “Acute Toxicity (survival)” value in series [1] (Dosage 100 mg/kg) is “All animals survived”. The “Acute Toxicity (survival)” value in series [1] (Dosage 200 mg/kg) is “All animals survived”. Also, the “Acute Toxicity (survival)” value in series [1] (Dosage 800 mg/kg) was “All animals survived”.
Take `IC(I)=C(I)Cn1ccnc1` [1-(2',3',3'-triiodoallyl)-imidazole, 1-(2',3',3'-Triiodoallyl)imidazole]: the MIC in series [2] was 12.5 mg/L (≈ 25.7 µM); in series [3] it was 12.5 mg/L (≈ 25.7 µM); in series [4], 25 mg/L (≈ 51.5 µM); in [5] it was 12.5 mg/L (≈ 25.7 µM); in [6], 12.5 mg/L (≈ 25.7 µM); in series [7] it was 12.5 mg/L (≈ 25.7 µM). The MIC with Salmonella typhi O-901-W turned out to be 12.5 mg/L (≈ 25.7 µM); in series [8], 6.5 mg/L (≈ 13.4 µM); in series [9] it was 12.5 mg/L (≈ 25.7 µM); in the series with Proteus vulgaris OX-19 it was 12.5 mg/L (≈ 25.7 µM); in series [10] it was 12.5 mg/L (≈ 25.7 µM); in series [11] it was 6.25 mg/L (≈ 12.9 µM).
As for `Clc1ccccc1C(c1ccccc1)(c1ccccc1)n1ccnc1` [chlotri-mazol, 1-(O-chloro-d, a-diphenylbenzyl) imidazole, reference compound], in series [12], the “Therapeutic Effect: Desquamation” value is reported as “effective”, the “Therapeutic Effect: Redness” value is given as “in-effective” and the “Therapeutic Effect: Thickening” value is recorded as “effective”.
For the compound `O=[N+]([O-])c1c(Cl)cccc1-c1c[nH]cc1Cl` [pyrrolni-trin, 3-chloro-4-(2'-nitro-3'-chlorophenyl)pyrrole, reference compound], in series [12], the “Therapeutic Effect: Desquamation” value is on record as “in-effective”, the “Therapeutic Effect: Redness” value is recorded as “in-effective” and the “Therapeutic Effect: Thickening” value was “effective”.
